One data set deals with T1, CYP3A4 (Homo sapiens, UniProt P08684).
T1 construct: pre-incubated with human liver microsomes and NADPH; from tissue; host or cells: human liver microsomes
Briefly: Cytochrome P450 inhibition assay (midazolam hydroxylation). The class given is in vitro ADME. The conditions noted are these: human, human liver microsomes, probe midazolam (hydroxylation to 1′-hydroxymidazolam), 10 μM test compound, midazolam at approximately its Km. The gist of the method:
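Percent inhibition of midazolam 1′-hydroxylation by 10 μM compound was measured, midazolam dosed at about Km. Time-dependent inhibition was probed by a 30 min preincubation of compound with human liver microsomes and NADPH ahead of substrate, compared against samples without preincubation.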
A general note: Liver microsomes are vesicles of endoplasmic reticulum, rich in cytochrome P450 enzymes.

The next data set deals with T2, OX1 (Homo sapiens, UniProt O43613).
T2 construct: expressed in transfected cells; host or cells: CHO (CHO-OX1, kept under selection antibiotic)
T2 sequence (O43613 1-425): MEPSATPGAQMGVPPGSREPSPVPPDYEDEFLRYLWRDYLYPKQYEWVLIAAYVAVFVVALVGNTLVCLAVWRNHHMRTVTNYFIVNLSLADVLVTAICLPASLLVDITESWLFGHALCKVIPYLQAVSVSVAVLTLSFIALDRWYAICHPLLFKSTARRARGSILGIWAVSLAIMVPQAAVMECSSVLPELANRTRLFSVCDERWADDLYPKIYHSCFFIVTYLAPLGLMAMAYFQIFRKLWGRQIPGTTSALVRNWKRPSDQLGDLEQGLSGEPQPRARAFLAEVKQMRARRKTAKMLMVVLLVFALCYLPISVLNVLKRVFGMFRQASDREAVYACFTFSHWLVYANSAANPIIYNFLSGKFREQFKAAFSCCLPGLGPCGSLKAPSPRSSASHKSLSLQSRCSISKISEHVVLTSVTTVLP
Briefly: Orexin receptor cell-based functional assay, [Ca2+]i by FLIPR, CHO-OX1 cells. As to conditions: CHO-OX1 cells, [Ca2+]i by FLIPR, antagonist dose-range 0.1 nM-10 μM, EC90 of OXA; read-out: OX1. The gist of the method: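 Antagonist mode FLIPR calcium read in CHO-OX1 and CHO-OX2 lines. Test compounds, dosed 0.1 nM-10 μM, preincubated 30 min after 37° C dye loading with 2.5 mM probenecid (calcium4 for 30 min or calcium6 for 2 h).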

T1 sequence (P08684 whole entry): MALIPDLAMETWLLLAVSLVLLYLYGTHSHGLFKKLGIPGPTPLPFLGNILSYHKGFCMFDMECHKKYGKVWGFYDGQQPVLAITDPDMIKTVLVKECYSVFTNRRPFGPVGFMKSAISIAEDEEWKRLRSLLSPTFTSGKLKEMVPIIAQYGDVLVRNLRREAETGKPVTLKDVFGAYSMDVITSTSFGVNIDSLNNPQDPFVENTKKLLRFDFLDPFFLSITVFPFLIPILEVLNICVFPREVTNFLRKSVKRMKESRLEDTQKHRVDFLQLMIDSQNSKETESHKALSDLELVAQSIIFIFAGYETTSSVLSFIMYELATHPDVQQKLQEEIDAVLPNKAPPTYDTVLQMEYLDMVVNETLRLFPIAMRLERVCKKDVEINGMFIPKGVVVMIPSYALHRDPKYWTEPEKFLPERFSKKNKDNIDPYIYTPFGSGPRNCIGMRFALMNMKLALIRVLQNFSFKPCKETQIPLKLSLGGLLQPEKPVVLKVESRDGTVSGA

`Cc1ccc(-c2ncccn2)c(C(=O)N2CCC[C@@H](C)[C@H]2CNc2ncc(F)cc2F)c1` [Example A182, ((2S,3R)-2-(((3,5-Difluoropyridin-2-yl)amino)methyl)-3-methylpiperidin-1-yl)(5-methyl-2-(pyrimidin-2-yl)phenyl)methanone]: 10 µM produced 65% inhibition on CYP3A4. Further, the IC50 at OX1 came to 140 nM.
Take `Cc1ccc(-c2cn[nH]c2)c(C(=O)N2CCC[C@@H](C)[C@H]2CNc2ccc(C(F)(F)F)cn2)c1` [Example A3, ((2S,3R)-3-Methyl-2-(((5-(trifluoromethyl)pyridin-2-yl)amino)methyl)piperidin-1-yl)(5-methyl-2-(1H-pyrazol-4-yl)phenyl)methanone]: testing at 10 µM on CYP3A4 gave an inhibition of 98%. Also, the IC50 on OX1 is 6 nM.
As for `Cc1ccc(-c2ccccn2)c(C(=O)N2CCC[C@@H](C)[C@H]2CNc2ccc(C(F)(F)F)cn2)c1` [Example A9, ((2S,3R)-3-Methyl-2-(((5-(trifluoromethyl)pyridin-2-yl)amino)methyl)piperidin-1-yl)(5-methyl-2-(pyridin-2-yl)phenyl)methanone], at 10 µM the inhibition on CYP3A4 was 89%. Moreover, the IC50 at OX1 came out at 9 nM.
`Cc1ccc(-c2ccccn2)c(C(=O)N2CCC[C@@H](C)[C@H]2CNc2ncc(C#N)cn2)c1` [Example A153, 2-((((2S,3R)-3-Methyl-1-(5-methyl-2-(pyridin-2-yl)benzoyl)piperidin-2-yl)methyl)amino)pyrimidine-5-carbonitrile]: the inhibition – broadly, the share of the control response that was lost under treatment – at 10 µM against CYP3A4 is 66%. Moreover, on OX1, the IC50 turned out to be 140 nM.
Turning to `C[C@@H]1CCCN(C(=O)c2cc(F)ccc2-n2nccn2)[C@@H]1CNc1ncc(Cl)cn1` [Example A221, ((2S,3R)-2-(((5-Chloropyrimidin-2-yl)amino)methyl)-3-methylpiperidin-1-yl)(5-fluoro-2-(2H-1,2,3-triazol-2-yl)phenyl)methanone], testing at 10 µM against CYP3A4 gave an inhibition of 53%. Also, the IC50 on OX1 is 32 nM.
The molecule `Cc1ccc(-n2nccn2)c(C(=O)N2CCC[C@@H](C)[C@H]2CNc2nc(C(F)(F)F)cs2)c1` [Example A123, ((2S,3R)-3-Methyl-2-(((4-(trifluoromethyl)thiazol-2-yl)amino)methyl)piperidin-1-yl)(5-methyl-2-(2H-1,2,3-triazol-2-yl)phenyl)methanone] displayed an inhibition at 10 µM at CYP3A4 of 97%. Further, at OX1, the IC50 was 410 nM.
Regarding `Cc1ccc(-n2nccn2)c(C(=O)N2CCC[C@@H](C)[C@H]2CNc2ccc(C(F)(F)F)cn2)c1F` [Example A318, (2-Fluoro-3-methyl-6-(2H-1,2,3-triazol-2-yl)phenyl)((2S,3R)-3-methyl-2-(((5-(trifluoromethyl)pyridin-2-yl)amino)methyl)piperidin-1-yl)methanone], the inhibition at 10 µM on CYP3A4 amounted to 79%. In addition, the IC50 at OX1 is 7 nM.
At CYP3A4, `C[C@@H]1CCCN(C(=O)c2cccc(F)c2-n2nccn2)[C@@H]1CNc1ncc(Cl)cn1` [Example A255, ((2S,3R)-2-(((5-Chloropyrimidin-2-yl)amino)methyl)-3-methylpiperidin-1-yl)(3-fluoro-2-(2H-1,2,3-triazol-2-yl)phenyl)methanone] came in with an inhibition at 10 µM of 41%. On OX1, the IC50 turned out to be 41 nM.
The molecule `C[C@@H]1CCCN(C(=O)c2c(F)cccc2-n2nccn2)[C@@H]1CNc1ccc(C(F)(F)F)cn1` [Example A258, (2-Fluoro-6-(2H-1,2,3-triazol-2-yl)phenyl)((2S,3R)-3-methyl-2-(((5-(trifluoromethyl)pyridin-2-yl)amino)methyl)piperidin-1-yl)methanone] showed an inhibition at 10 µM at CYP3A4 of 69%. Moreover, the IC50 on OX1 was 4 nM.
Regarding `Cc1ccc(-c2cnn(C)c2)c(C(=O)N2CCC[C@@H](C)[C@H]2CNc2nc3ccccc3o2)c1` [Example A2, ((2S,3R)-2-((Benzo[d]oxazol-2-ylamino)methyl)-3-methylpiperidin-1-yl)(5-methyl-2-(1-methyl-1H-pyrazol-4-yl)phenyl)methanone], the inhibition at 10 µM against CYP3A4 turned out to be 93%. Further, at OX1, the IC50 amounted to 61 nM.
With `Cc1ccc(-n2nccn2)c(C(=O)N2CCC[C@@H](C)[C@H]2CNc2ccc(C)nn2)c1` [Example A146, ((2S,3R)-3-Methyl-2-(((6-methylpyridazin-3-yl)amino)methyl)piperidin-1-yl)(5-methyl-2-(2H-1,2,3-triazol-2-yl)phenyl)methanone], at 10 µM the inhibition on CYP3A4 was 29%. Also, at OX1, the IC50 was over 1000 nM.
In the case of `C[C@@H]1CCCN(C(=O)c2cc(Cl)ccc2-c2ncccn2)[C@@H]1CNc1ccc(Cl)cn1` [Example A203, (5-Chloro-2-(pyrimidin-2-yl)phenyl)((2S,3R)-2-(((5-chloropyridin-2-yl)amino)methyl)-3-methylpiperidin-1-yl)methanone], the inhibition at 10 µM against CYP3A4 was 70%. Besides, the IC50 on OX1 came to 21 nM.
At CYP3A4, `Cc1ccc(-n2nccn2)c(C(=O)N2CCC[C@@H](C)[C@H]2CNc2nc3cc(Cl)ccc3o2)n1` [Example A195, ((2S,3R)-2-(((5-Chlorobenzo[d]oxazol-2-yl)amino)methyl)-3-methylpiperidin-1-yl)(6-methyl-3-(2H-1,2,3-triazol-2-yl)pyridin-2-yl)methanone] displayed an inhibition at 10 µM of 57%. Also, the IC50 at OX1 stood at 4 nM.
For the molecule `Cc1ccc(-n2ncc(C)n2)c(C(=O)N2CCC[C@@H](C)[C@H]2CNc2ccc(C(F)(F)F)nn2)c1` [Example A125, ((2S,3R)-3-Methyl-2-(((6-(trifluoromethyl)pyridazin-3-yl)amino)methyl)piperidin-1-yl)(5-methyl-2-(4-methyl-2H-1,2,3-triazol-2-yl)phenyl)methanone], at CYP3A4, the inhibition at 10 µM was 75%. In addition, the IC50 on OX1 turned out to be 25 nM.
`Cc1ccc(-c2ccc(C(F)(F)F)cn2)c(C(=O)N2CCC[C@@H](C)[C@H]2CNc2ccc(Cl)cn2)c1` [Example A158, ((2S,3R)-2-(((5-Chloropyridin-2-yl)amino)methyl)-3-methylpiperidin-1-yl)(5-methyl-2-(5-(trifluoromethyl)pyridin-2-yl)phenyl)methanone] came in with an inhibition at 10 µM at CYP3A4 of 83%. Moreover, the IC50 at OX1 came to 220 nM.
Taken in the same sequence, the figures for `Cc1ccc(-n2nccn2)c(C(=O)N2CCC[C@@H](C)[C@H]2CNc2ncc(C(F)(F)F)cc2F)c1` [Example A82, ((2S,3R)-2-(((3-Fluoro-5-(trifluoromethyl)pyridin-2-yl)amino)methyl)-3-methylpiperidin-1-yl)(5-methyl-2-(2H-1,2,3-triazol-2-yl)phenyl)methanone] were 68% and 8 nM.
`Cc1ccc(-c2cnccc2C)c(C(=O)N2CCC[C@@H](C)[C@H]2CNc2ccc(C(F)(F)F)cn2)c1` [Example A8, ((2S,3R)-3-Methyl-2-(((5-(trifluoromethyl)pyridin-2-yl)amino)methyl)piperidin-1-yl)(5-methyl-2-(4-methylpyridin-3-yl)phenyl)methanone] displayed an inhibition at 10 µM against CYP3A4 of 99%. Besides, the IC50 at OX1 stood at 58 nM.
For `Cc1ccc(C(=O)N2CCC[C@@H](C)[C@H]2CNc2ccc(C(F)(F)F)cn2)c(-c2ncccn2)c1F` [Example A358, (3-fluoro-4-methyl-2-(pyrimidin-2-yl)phenyl)((2S,3R)-3-methyl-2-(((5-(trifluoromethyl)pyridin-2-yl)amino)methyl)piperidin-1-yl)methanone], the inhibition at 10 µM on CYP3A4 was determined as 83%. Also, on OX1, the IC50 was 5 nM.
In turn, `Cc1ccc(-n2cnc(C)n2)c(C(=O)N2CCC[C@@H](C)[C@H]2CNc2nc3cc(Cl)ccc3o2)c1` [Example A29, ((2S,3R)-2-(((5-Chlorobenzo[d]oxazol-2-yl)amino)methyl)-3-methylpiperidin-1-yl)(5-methyl-2-(3-methyl-1H-1,2,4-triazol-1-yl)phenyl)methanone] yielded an inhibition at 10 µM against CYP3A4 of 91%. Also, the IC50 at OX1 is 87 nM.
`Cc1ccc(-c2cnn(C)c2)c(C(=O)N2CCC[C@@H](C)[C@H]2CNc2cccc(C)n2)c1` [Example A87, ((2S,3R)-3-Methyl-2-(((6-methylpyridin-2-yl)amino)methyl)piperidin-1-yl)(5-methyl-2-(1-methyl-1H-pyrazol-4-yl)phenyl)methanone] gave an inhibition at 10 µM at CYP3A4 of 73%. Moreover, the IC50 on OX1 amounted to 220 nM.
`C[C@@H]1CCCN(C(=O)c2cc(F)ccc2-c2ncccn2)[C@@H]1CNc1ccc(C(F)(F)F)cn1` [Example A228, (5-Fluoro-2-(pyrimidin-2-yl)phenyl)((2S,3R)-3-methyl-2-(((5-(trifluoromethyl)pyridin-2-yl)amino)methyl)piperidin-1-yl)methanone] registered an inhibition at 10 µM against CYP3A4 of 72%. The IC50 at OX1 was found to be 1 nM.
At CYP3A4, `C[C@@H]1CCCN(C(=O)c2ccccc2-n2nccn2)[C@@H]1CNc1ccc(C(F)(F)F)cn1` [Example A314, (2-(2H-1,2,3-Triazol-2-yl)phenyl)((2S,3R)-3-methyl-2-(((5-(trifluoromethyl)pyridin-2-yl)amino)methyl)piperidin-1-yl)methanone] displayed an inhibition at 10 µM of 76%. Moreover, the IC50 on OX1 came to 2 nM.

These data come from patent publication US9440982B2 (Eolas Therapeutics, Inc., priority 2012, dated 2016).
